Measured values reported in the supplement of paper PMC11451515.

Tested on: NOMO1
Experiment: cell viability relative to DMSO control; higher = less cytotoxic
Conditions: 48 h
Outline: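 Three leukemia lines were tested: NOMO1 and SEM at 500 cells/well and P12-Ichikawa at 1000 cells/well. Each was adapted for at least four passages in each medium and seeded in 5 μl in 1536-well plates, and library compounds in DMSO were pin-dosed from 47 μM to 0.79 nM in 11 threefold steps. After 48 h at 37°C, CellTiter-Glo One luminescence was read. Viability is a percentage relative to DMSO wells on each plate, with cell-free wells as background.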

[1] = HPLM + 10% dialyzed FBS, 0.000781 µM
[2] = HPLM + 10% dialyzed FBS, 0.00234 µM
[3] = HPLM + 10% dialyzed FBS, 0.00702 µM
[4] = HPLM + 10% dialyzed FBS, 0.0211 µM
[5] = HPLM + 10% dialyzed FBS, 0.0632 µM
[6] = HPLM + 10% dialyzed FBS, 0.19 µM
[7] = HPLM + 10% dialyzed FBS, 0.569 µM
[8] = HPLM + 10% dialyzed FBS, 1.71 µM
[9] = HPLM + 10% dialyzed FBS, 5.12 µM
[10] = HPLM + 10% dialyzed FBS, 15.4 µM
[11] = HPLM + 10% dialyzed FBS, 46.1 µM
[12] = RPMI 5 mM glucose + 10% FBS, 0.000781 µM
[13] = RPMI 5 mM glucose + 10% FBS, 0.00234 µM
[14] = RPMI 5 mM glucose + 10% FBS, 0.00702 µM
[15] = RPMI 5 mM glucose + 10% FBS, 0.0211 µM
[16] = RPMI 5 mM glucose + 10% FBS, 0.0632 µM
[17] = RPMI 5 mM glucose + 10% FBS, 0.19 µM
[18] = RPMI 5 mM glucose + 10% FBS, 0.569 µM
[19] = RPMI 5 mM glucose + 10% FBS, 1.71 µM
[20] = RPMI 5 mM glucose + 10% FBS, 5.12 µM
[21] = RPMI 5 mM glucose + 10% FBS, 15.4 µM
[22] = RPMI 5 mM glucose + 10% FBS, 46.1 µM
[23] = RPMI 5 mM glucose + 10% dialyzed FBS, 0.000781 µM
[24] = RPMI 5 mM glucose + 10% dialyzed FBS, 0.00234 µM
[25] = RPMI 5 mM glucose + 10% dialyzed FBS, 0.00702 µM
[26] = RPMI 5 mM glucose + 10% dialyzed FBS, 0.0211 µM
[27] = RPMI 5 mM glucose + 10% dialyzed FBS, 0.0632 µM
[28] = RPMI 5 mM glucose + 10% dialyzed FBS, 0.19 µM
[29] = RPMI 5 mM glucose + 10% dialyzed FBS, 0.569 µM
[30] = RPMI 5 mM glucose + 10% dialyzed FBS, 1.71 µM
[31] = RPMI 5 mM glucose + 10% dialyzed FBS, 5.12 µM
[32] = RPMI 5 mM glucose + 10% dialyzed FBS, 15.4 µM
[33] = RPMI 5 mM glucose + 10% dialyzed FBS, 46.1 µM

Structure (SMILES) | cell viability [1] [%] | cell viability [2] [%] | cell viability [3] [%] | cell viability [4] [%] | cell viability [5] [%] | cell viability [6] [%] | cell viability [7] [%] | cell viability [8] [%] | cell viability [9] [%] | cell viability [10] [%] | cell viability [11] [%] | cell viability [12] [%] | cell viability [13] [%] | cell viability [14] [%] | cell viability [15] [%] | cell viability [16] [%] | cell viability [17] [%] | cell viability [18] [%] | cell viability [19] [%] | cell viability [20] [%] | cell viability [21] [%] | cell viability [22] [%] | cell viability [23] [%] | cell viability [24] [%] | cell viability [25] [%] | cell viability [26] [%] | cell viability [27] [%] | cell viability [28] [%] | cell viability [29] [%] | cell viability [30] [%] | cell viability [31] [%] | cell viability [32] [%] | cell viability [33] [%]
CCOC(=O)O[C@]1(C(=O)OCCl)CC[C@H]2[C@@H]3CCC4=CC(=O)C=C[C@]4(C)[C@H]3[C@@H](O)C[C@@]21C | 101 | 95.9 | 103 | 105 | 103 | 108 | 110 | 99.3 | 95.3 | 84.3 | 82 | 98.4 | 88.2 | 96.2 | 84.2 | 82.2 | 94.6 | 85.7 | 87.5 | 87.1 | 89.3 | 95 | 88.1 | 95.1 | 93.2 | 87.4 | 91 | 100 | 88.6 | 98.2 | 75.8 | 80.2 | 93.4
CCCCCN(CCC12CC3CC(CC(C3)C1)C2)C(=O)NCCCc1ccncc1 | 111 | 120 | 116 | 114 | 115 | 109 | 108 | 93.7 | 111 | 112 | 97.3 | 98.2 | 110 | 107 | 110 | 116 | 113 | 97.8 | 113 | 96.5 | 107 | 98.4 | 104 | 102 | 119 | 120 | 116 | 107 | 116 | 111 | 116 | 94.1 | 99.1
CC(C)(C)OC(=O)Nc1ccc(-c2cc(C(=O)NCCCCCCC(=O)NO)no2)cc1 | 88.5 | 89 | 84.4 | 89.8 | 98.3 | 104 | 104 | 99.4 | 68.7 | 13.7 | 4.88 | 86.7 | 80.1 | 81.1 | 84.3 | 85.3 | 88.6 | 99.4 | 80.8 | 67.1 | 11.8 | 4.55 | 86.3 | 82.8 | 89.2 | 88.2 | 99.3 | 92.1 | 101 | 72.9 | 73.8 | 13.1 | 4.05
Cc1c(C(=O)c2cccc3ccccc23)c2cccc3c2n1[C@H](CN1CCOCC1)CO3 | 104 | 100 | 94.2 | 101 | 99.9 | 91 | 89.5 | 86.9 | 97.9 | 86.1 | 5.74 | 91.4 | 83.8 | 87.4 | 87.8 | 96.7 | 94.4 | 86.4 | 91 | 88.7 | 81.4 | 4.88 | 84.2 | 90 | 86.3 | 86.9 | 95.8 | 85.5 | 85.4 | 88.1 | 87.5 | 77.7 | 5.16
NC(CO)C(=O)NNCc1ccc(O)c(O)c1O (stereo not drawn) | 96.1 | 104 | 106 | 93.5 | 107 | 107 | 91.6 | 88.1 | 90.6 | 89 | 77.2 | 85.6 | 101 | 96.3 | 95.9 | 94.4 | 94.1 | 89.4 | 85 | 84.3 | 83.7 | 82.9 | 89.4 | 102 | 107 | 90.8 | 98.8 | 102 | 91.9 | 90 | 96 | 92.7 | 82.6
CC(C)(C)C1=CC(=C(NC(=O)C/2=C/NC3=C(C=CC=C3)C2=O)C=C1O)C(C)(C)C |  |  |  |  |  |  |  |  |  |  |  | 120 | 108 | 118 | 128 | 136 | 124 | 121 | 116 | 114 | 111 | 103 |  |  |  |  |  |  |  |  |  |  | 
CC(S)C(=O)NCC(=O)O (stereo not drawn) | 116 | 109 | 110 | 116 | 116 | 123 | 108 | 114 | 111 | 97.9 | 89.4 | 120 | 112 | 109 | 107 | 107 | 111 | 107 | 110 | 114 | 116 | 107 | 105 | 113 | 113 | 107 | 107 | 105 | 107 | 112 | 105 | 96.5 | 112
C[N]1C=C(C=N1)C2=CC=C3N=CC\4=C(N(C(=O)\C=C4)C5=CC6=C(CCN6C(=O)C=C)C=C5)C3=C2 |  |  |  |  |  |  |  |  |  |  |  | 100 | 104 | 108 | 95.2 | 102 | 109 | 95.7 | 88.8 | 69.3 | 13.5 | 9.25 | 105 | 108 | 109 | 119 | 97.2 | 107 | 96 | 90.6 | 47.4 | 6.23 | 5.9
CCOC(=O)N[C@@H]1CC[C@@H]2[C@@H](C1)C[C@H]1C(=O)O[C@H](C)[C@H]1[C@H]2/C=C/c1ccc(-c2cccc(F)c2)cn1 |  |  |  |  |  |  |  |  |  |  |  | 114 | 115 | 122 | 128 | 127 | 121 | 120 | 131 | 127 | 142 | 79 | 125 | 112 | 122 | 109 | 115 | 118 | 133 | 129 | 131 | 125 | 76.8
